Measured values taken from patent US6342509B1, “Piperidine quaternary salts- CCR- 3 receptor antagonists” (Syntex (U.S.A.) LLC, priority 1998, dated 2002).

Legend:
CCR-3 receptor = target: T1, CCR-3 receptor (Homo sapiens, UniProt P51677); assay: CCR-3 Receptor Binding Assay in vitro (inhibition of 125I eotaxin binding to CCR-3 L1.2 transfectant cells); conditions: CCR-3 L1.2 transfected cells, 1 h at room temperature, read-out: IC50 (concentration of test compound required to reduce 125I-eotaxin binding to the CCR-3 L1.2 transfected cells by 50%)
T1 construct: host or cells: L1.2 (murine pre-B lymphoma line) CCR-3 transfectant cells
T1 sequence (P51677 1-355): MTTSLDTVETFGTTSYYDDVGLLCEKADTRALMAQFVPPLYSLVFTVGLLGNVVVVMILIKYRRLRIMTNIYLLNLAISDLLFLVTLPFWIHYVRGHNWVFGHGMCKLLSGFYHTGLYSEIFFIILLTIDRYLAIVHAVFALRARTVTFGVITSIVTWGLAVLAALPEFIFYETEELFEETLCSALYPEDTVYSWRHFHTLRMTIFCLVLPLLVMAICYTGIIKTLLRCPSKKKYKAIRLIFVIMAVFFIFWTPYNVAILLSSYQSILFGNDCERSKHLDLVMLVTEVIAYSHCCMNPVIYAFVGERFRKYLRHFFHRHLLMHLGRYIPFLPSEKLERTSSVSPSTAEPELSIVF
Protocol: The CCR-3 antagonistic activity of the compounds of the invention was determined by their ability to inhibit the binding of ^125I eotaxin to CCR-3 L1.2 transfectant cells obtained from leukoSite (Cambridge, Mass.).
The assay was performed in Costar 96-well polypropylene round bottom plates. Test compounds were dissolved in DMSO and then diluted with binding buffer (50 mM HEPES, 1 mM CaCl2, 5 mM MgCl2, 0.5% bovine serum albumin, 0.02% sodium azide, pH 7.24) such that the final DMSO concentration was 2%. 25 μl of the test solution or only buffer with DMSO (control samples) was added to each well, followed by the addition of 25 μl of ^125I-eotaxin ([…]) (NEX314, New England Nuclear, Boston, Mass.) and […] of the CCR-3 L1.2 transfected cells in 25 μl binding buffer. The final reaction volume was 75 μl.
After incubating the reaction mixture for 1 h at room temperature, the reaction was terminated by filtering the reaction mixture through polyethylenimine treated Packard Unifilter GF/C filter plate (Packard, Chicago, Ill.). The filters were washed four times with ice cold wash buffer containing 10 mm HEPES and 0.5M sodium chloride (pH 7.2) and dried at 65° C. for approximately 10 min. 25 μl/well of Microscint-20™ scintillation fluid (Packard) was added and the radioactivity retained on the filters was determined by using the Packard TopCount™.
The IC50 value (concentration of test compound required to reduce ^125I-eotaxin binding to the CCR-3 L 1.2 transfected cells by 50%) for representative compounds of the invention was: […]

SMILES | melting point | IC50 (CCR-3 receptor)
CC[N+]1(C[C@H](NC(=O)Nc2cc(OC)c(OC)c(OC)c2)C(C)C)CCC(Cc2ccc(Cl)c(Cl)c2)CC1 (some centres unmarked) [Cpd 1, 4-(3,4-Dichlorobenzyl)-1-ethyl-1-{3-methyl-2-[3-(3,4,5-trimethoxyphenyl)-ureido]butyl]piperidinium iodide] |  | 0.21 µM
CCc1ccccc1NC(=O)N[C@@H](C[N+]1(CC)CCC(Cc2ccc(Cl)c(Cl)c2)CC1)C(C)(C)C (some centres unmarked) [Cpd 12] |  | 0.198 µM
COc1cc(NC(=O)NCC[N+]2(C)CCC(Cc3ccc(Cl)c(Cl)c3)CC2)cc(OC)c1OC.[I-] (centres unmarked) [Cpd 19, 4-(3,4-dichlorobenzyl)-1-methyl-1-{2-[(3,4,5-trimethoxyphenyl)ureido]ethyl}piperidinium iodide] | 102 to 108 °C | 

Now from value to compound:

melting point | IC50 (CCR-3 receptor) | SMILES
123.7 to 138 °C |  | COc1cc(NC(=O)NC(C[N+]2(C)CCC(Cc3ccc(Cl)c(Cl)c3)CC2)C(C)C)cc(OC)c1OC.[Cl-] (centres unmarked)
 | 2.32 µM | COc1cc(NC(=O)NC(C[N+]2(C)CCC(Cc3ccc(Cl)c(Cl)c3)CC2)C(C)C)cc(OC)c1OC (centres unmarked) [Cpd 14, 4-(3,4-dichlorobenzyl)-1-methyl-1-{3-methyl-2-[3-(3,4,5-trimethoxyphenyl)ureido]butyl}piperidinium iodide]
